Test results published in ChEMBL document CHEMBL1201862, “PubChem BioAssay data set” (2004).
Activity calls are given as the source filed them.

Columns and labels:
[1] = HEp-2 cell cytotoxicity, dose response, cytotoxicity control for RSV inhibitor project, HTS (AID 2410); format: functional; details: human respiratory syncytial virus
Cytochrome P450 2D6 = Cytochrome P450 2D6 (Homo sapiens, UniProt P10635);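 also: CYP2D6 member of a cytochrome P450 panel assay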
Cytochrome P450 2C9 = Cytochrome P450 2C9 (Homo sapiens, UniProt P11712)
[2] = target: T1, Heat shock factor protein 1 (Mus musculus, UniProt P38532); assay: inhibition of MG132-induced HSE-luciferase signal, confirmation, cell-based, NIH3T3, luminescence, dose retest (AID 2382); format: functional;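 also: NIH3T3 fibroblasts with HSF1-driven luciferase reporter stressed by proteasome inhibitor MG132; luminescence from HSF1-driven luciferase expression after 8 hours of MG132 stress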
T1 sequence (P38532 whole entry): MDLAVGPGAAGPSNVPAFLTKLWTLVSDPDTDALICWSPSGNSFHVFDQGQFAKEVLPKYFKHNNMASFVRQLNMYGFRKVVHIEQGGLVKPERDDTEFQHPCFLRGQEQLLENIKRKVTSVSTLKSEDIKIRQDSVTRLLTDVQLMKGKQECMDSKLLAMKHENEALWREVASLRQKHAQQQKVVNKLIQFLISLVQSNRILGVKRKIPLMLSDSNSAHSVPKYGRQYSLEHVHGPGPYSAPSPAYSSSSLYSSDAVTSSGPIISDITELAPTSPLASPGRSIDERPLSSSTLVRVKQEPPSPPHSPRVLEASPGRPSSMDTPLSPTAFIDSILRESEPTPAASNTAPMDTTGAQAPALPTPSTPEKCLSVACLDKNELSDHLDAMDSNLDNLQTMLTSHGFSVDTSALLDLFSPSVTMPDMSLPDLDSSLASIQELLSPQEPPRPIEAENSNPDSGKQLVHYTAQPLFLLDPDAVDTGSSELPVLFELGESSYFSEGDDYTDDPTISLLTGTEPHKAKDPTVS

Paired box protein Pax-8 = Paired box protein Pax-8 (Homo sapiens, UniProt Q06710); assay: inhibitors of PAX8-driven TPO luciferase reporter, dose response, RMG-I cells, cherry-pick (AID 687027); format: functional, cell-based;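 also: luciferase reporter driven by Pax8 target thyroperoxidase promoter measured by SteadyGlo luminescence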
[3] = NIH-3T3 fibroblast cytotoxicity, dose response, cytotoxicity control, cell-based, fluorescence, Alamar Blue, secondary assay (AID 2327); format: functional;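 also: NIH-3T3 mouse fibroblasts cultured with fluconazole at 8 µg/mL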
[4] = target: T2, Corticotropin-releasing factor receptor 2/Corticotropin-releasing factor-binding protein (Homo sapiens, UniProt P24387+Q13324); assay: activators of CRF receptor 2 with binding protein – uHTS hits, confirmation (AID 602473); format: functional; details: read-out: EC50_Mean
T2 sequence (Q13324 whole entry): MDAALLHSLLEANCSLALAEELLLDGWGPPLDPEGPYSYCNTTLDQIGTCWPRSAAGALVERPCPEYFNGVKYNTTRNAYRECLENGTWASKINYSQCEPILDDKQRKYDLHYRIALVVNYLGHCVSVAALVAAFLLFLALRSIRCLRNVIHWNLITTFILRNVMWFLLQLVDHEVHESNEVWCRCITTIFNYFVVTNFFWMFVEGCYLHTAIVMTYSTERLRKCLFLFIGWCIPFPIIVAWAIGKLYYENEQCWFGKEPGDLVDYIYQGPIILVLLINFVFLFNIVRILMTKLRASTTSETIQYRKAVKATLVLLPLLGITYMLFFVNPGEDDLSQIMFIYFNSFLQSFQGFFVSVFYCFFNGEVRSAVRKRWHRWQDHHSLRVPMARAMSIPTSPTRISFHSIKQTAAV
T2 sequence (P24387 whole entry): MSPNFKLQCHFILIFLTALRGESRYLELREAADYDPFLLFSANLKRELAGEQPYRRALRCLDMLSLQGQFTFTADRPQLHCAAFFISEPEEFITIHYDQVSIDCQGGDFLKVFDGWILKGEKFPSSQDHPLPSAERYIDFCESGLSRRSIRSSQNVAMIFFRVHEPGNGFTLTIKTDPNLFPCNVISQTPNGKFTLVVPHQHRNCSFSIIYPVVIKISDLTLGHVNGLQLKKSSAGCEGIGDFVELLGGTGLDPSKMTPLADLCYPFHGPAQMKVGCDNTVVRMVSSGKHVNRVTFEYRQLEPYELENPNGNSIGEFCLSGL

[5] = target: T2, Corticotropin-releasing factor receptor 2/Corticotropin-releasing factor-binding protein; assay: Dose Response confirmation of uHTS hits for small molecule antagonists of the CRF-binding protein and CRF-R2 receptor complex.; format: functional; details: read-out: IC50_Mean
cells = format: functional
Cytochrome P450 2C19 = Cytochrome P450 2C19 (Homo sapiens, UniProt P33261); assay: Cytochrome panel assay with activity outcomes. Panel member name: p450-cyp2c19 Compounds with AC50 equal or less than 10 uM are considered active; format: functional
[6] = Luminescence Cell-Based Dose Response HTS to Identify Activators of Luciferase Translation or Activity in H4 […] Cells. [Related pubchem assays: 1829 (Project Summary), 1814 (Primary HTS)]; format: functional

Chain of Cytochrome P450 2C9 (P11712 whole entry): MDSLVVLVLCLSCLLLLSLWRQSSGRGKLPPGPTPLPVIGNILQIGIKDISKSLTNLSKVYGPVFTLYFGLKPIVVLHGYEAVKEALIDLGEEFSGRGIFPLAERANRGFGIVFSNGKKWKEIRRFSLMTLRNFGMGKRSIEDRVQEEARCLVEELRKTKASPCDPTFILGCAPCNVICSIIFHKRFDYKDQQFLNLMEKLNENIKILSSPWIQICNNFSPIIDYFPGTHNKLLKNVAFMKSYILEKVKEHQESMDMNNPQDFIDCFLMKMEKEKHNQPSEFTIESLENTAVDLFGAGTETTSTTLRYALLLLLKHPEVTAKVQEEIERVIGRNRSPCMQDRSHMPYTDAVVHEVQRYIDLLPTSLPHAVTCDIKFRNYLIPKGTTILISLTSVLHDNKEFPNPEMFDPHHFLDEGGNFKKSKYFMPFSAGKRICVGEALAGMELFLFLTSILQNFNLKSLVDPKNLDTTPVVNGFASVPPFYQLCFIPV
Chain of Cytochrome P450 2C19 (P33261 whole entry): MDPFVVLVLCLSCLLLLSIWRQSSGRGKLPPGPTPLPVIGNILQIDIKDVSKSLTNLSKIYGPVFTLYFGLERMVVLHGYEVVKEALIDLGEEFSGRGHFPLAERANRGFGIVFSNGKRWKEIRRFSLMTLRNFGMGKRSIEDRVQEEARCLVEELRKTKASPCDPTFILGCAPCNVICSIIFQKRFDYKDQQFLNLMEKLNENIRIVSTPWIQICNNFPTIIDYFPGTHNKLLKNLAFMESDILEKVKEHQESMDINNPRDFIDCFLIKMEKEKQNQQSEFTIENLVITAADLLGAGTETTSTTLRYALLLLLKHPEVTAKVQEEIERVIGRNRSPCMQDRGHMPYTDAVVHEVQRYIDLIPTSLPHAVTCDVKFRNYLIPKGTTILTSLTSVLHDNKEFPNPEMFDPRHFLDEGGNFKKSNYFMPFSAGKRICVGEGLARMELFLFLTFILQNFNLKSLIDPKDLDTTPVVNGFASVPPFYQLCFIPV
Chain of Paired box protein Pax-8 (Q06710 whole entry): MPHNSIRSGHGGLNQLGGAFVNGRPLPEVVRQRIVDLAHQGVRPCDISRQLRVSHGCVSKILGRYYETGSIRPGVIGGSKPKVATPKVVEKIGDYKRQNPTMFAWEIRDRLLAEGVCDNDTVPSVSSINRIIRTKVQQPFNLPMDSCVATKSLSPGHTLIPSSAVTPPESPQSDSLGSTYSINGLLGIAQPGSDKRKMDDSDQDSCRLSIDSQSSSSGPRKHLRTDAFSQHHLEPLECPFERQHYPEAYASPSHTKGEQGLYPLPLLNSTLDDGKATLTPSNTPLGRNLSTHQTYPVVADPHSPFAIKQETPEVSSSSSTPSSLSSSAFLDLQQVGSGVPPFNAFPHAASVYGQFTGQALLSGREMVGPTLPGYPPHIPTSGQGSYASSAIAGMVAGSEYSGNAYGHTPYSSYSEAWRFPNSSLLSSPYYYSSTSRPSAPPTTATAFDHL
Chain of Cytochrome P450 2D6 (P10635 whole entry): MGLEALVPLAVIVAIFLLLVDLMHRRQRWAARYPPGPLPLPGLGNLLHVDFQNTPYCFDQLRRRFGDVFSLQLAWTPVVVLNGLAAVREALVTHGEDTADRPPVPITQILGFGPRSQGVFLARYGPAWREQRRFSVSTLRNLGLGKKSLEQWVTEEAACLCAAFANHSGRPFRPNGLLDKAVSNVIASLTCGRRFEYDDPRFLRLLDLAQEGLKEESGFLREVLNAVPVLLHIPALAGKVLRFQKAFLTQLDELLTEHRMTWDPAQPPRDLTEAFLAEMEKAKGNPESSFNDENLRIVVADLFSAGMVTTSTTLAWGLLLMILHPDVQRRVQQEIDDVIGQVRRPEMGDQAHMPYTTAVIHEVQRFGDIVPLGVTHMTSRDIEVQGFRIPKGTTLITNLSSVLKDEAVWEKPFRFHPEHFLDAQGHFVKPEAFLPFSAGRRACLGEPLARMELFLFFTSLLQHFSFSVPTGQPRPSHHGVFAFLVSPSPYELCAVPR

CCSc1nc2c(c(-c3ccc(C)o3)c1C#N)CCCC2
CC50 [1]: 37.5 µM (active)

COc1cccc(-c2cncnc2NCc2cnc(C)cn2)c1
AC50 (Cytochrome P450 2D6): 15.8 µM (inconclusive)

CC1CCCN(C/C=C/c2ccccc2[N+](=O)[O-])C1 (stereo not drawn)
AC50 (Cytochrome P450 2C9): 0.2 µM (inconclusive)

Cc1cc(Br)c2[nH]cc(CCNC(=O)c3ccco3)c2c1
EC50 [2]: > 195 µM (not active)

CCC1(C)Cc2c(sc3nnn(CC(=O)Nc4ccc(C)cc4)c(=O)c23)CO1 (stereo not drawn)
AC50 (Cytochrome P450 2D6): 22.4 µM (inconclusive)

O=C1CC(N2CC=C(c3ccc(F)cc3)CC2)C(=O)N1c1ccc(F)cc1 (stereo not drawn)
EC50 [2]: > 195 µM (not active)

C[C@@H]1CN([C@@H](C)CO)C(=O)Cc2cc(NC(=O)Nc3ccc(C(F)(F)F)cc3)ccc2O[C@H]1CN(C)Cc1ccc(Cl)c(Cl)c1
AC50 (Paired box protein Pax-8): 11.1 µM (active)

O=S(=O)(/C=C/c1ccccc1)N1CCC(c2nc(O)c3nnn(Cc4ccccc4)c3n2)CC1
CC50 [1]: 27.7 µM (active)

NC(=O)c1c(NC(=O)c2ccccc2F)sc2c1CCCC2
EC50 [3]: 25.1 µM (active)

O=S(=O)(c1ccccc1F)N1CC[C@@H]2[C@H](CO)Nc3ccc(C4=CCCCC4)cc3[C@@H]21
AC50 (Paired box protein Pax-8): 28.2 µM (active)

COc1ccc(-c2nc(CSCC(=O)NCCC3=CCCCC3)c(C)o2)cc1OC
CC50 [1]: > 50 µM (active)

COC(=O)c1nn(-c2ccccc2)c(=O)cc1Oc1ccccc1
AC50 (Cytochrome P450 2C9): 11.2 µM (inconclusive)

COc1ccc(Cl)cc1NC(=O)c1ccoc1C
EC50 [4]: > 53 µM (inactive)
IC50 [5]: > 47.1 µM (inactive)

COc1c(OC(C)=O)ccc(/C=C/c2ccc3cccc(OC)c3n2)c1[N+](=O)[O-]
CC50 [1]: > 50 µM (active)

CC1=CCC2C(=O)N(c3ccc(C)c(Br)c3)C(=O)C2C1 (stereo not drawn)
EC50 [2]: > 195 µM (not active)

O=C(OCn1nnc2ccccc2c1=O)c1cccs1
IC50 (cells): 15.6 µM (active)

Cc1ccc(S(=O)(=O)N2CCC(C(=O)OCc3ccccc3)CC2)cc1C
IC50 (cells): 18.6 µM (active)

CCSc1nnc(-c2ccccc2NC(C)=O)c(O)n1
AC50 (Cytochrome P450 2C9): 31.6 µM (inconclusive)
AC50 (Cytochrome P450 2C19): inconclusive

CCCOc1ccc2c3c(c(=O)oc2c1)CCCC3
CC50 [1]: > 50 µM (active)

Cc1cc(C(C)(C)C)ccc1OCC(=O)N/N=C\c1c(C)n(C)n(-c2ccccc2)c1=O
EC50 [2]: > 195 µM (not active)

O=C(c1ccncc1)N1CCC2(CCN(Cc3ccccc3)CC2)CC1
AC50 (Cytochrome P450 2D6): 12.6 µM (inconclusive)
AC50 (Cytochrome P450 2C19): inconclusive

Nc1c(-c2cccs2)cnn1-c1nc(-c2ccc(F)cc2)cs1
EC50 [6]: 0.304 µM (active)
AC50 (Cytochrome P450 2C9): 0.158 µM (inconclusive)

CCOC(=O)c1cnc2ccc(C(=O)OC)cc2c1Nc1ccc(C(=O)O)cc1
AC50 (Paired box protein Pax-8): 66.4 µM (active)

COc1cc(C(=O)OC2C[C@H]3CC[C@@H](C2)N3C)ccc1O (stereo partly drawn)
AC50 (Cytochrome P450 2D6): 7.94 µM (inconclusive)

O=C(CNC(=S)N(CCCN1CCOCC1)Cc1cccs1)NCc1ccccc1Cl
EC50 [2]: > 195 µM (not active)

Cc1ccccc1-c1cncnc1N(C)Cc1ccco1
AC50 (Cytochrome P450 2D6): 20 µM (inconclusive)

Cc1ccc(OC(=O)c2cccc([N+](=O)[O-])c2)c(-n2nc3ccccc3n2)c1
EC50 [6]: 0.588 µM (active)

CC1CCC(NC(=O)c2ccc3c(c2)S(=O)(=O)c2ccccc2C3=O)CC1 (stereo not drawn)
CC50 [1]: > 50 µM (active)

CCOC(=O)C(NCc1ccccn1)(NC(=O)c1cccnc1)C(F)(F)F (stereo not drawn)
EC50 [4]: > 53 µM (inactive)
IC50 [5]: > 47.1 µM (inactive)

O=C(OCc1cc(=O)n2cc(Br)ccc2n1)C1COc2ccccc2O1 (stereo not drawn)
EC50 [2]: > 195 µM (not active)

CCOc1nc(C)ccc1-c1noc(-c2cccnc2)n1
EC50 [2]: > 195 µM (not active)

O=S1(=O)OC(c2ccc(O)cc2)(c2ccc(O)cc2)c2ccccc21 [PHENOLSULFONPHTHALEIN]
AC50 (Cytochrome P450 2C9): 6.31 µM (inconclusive)

CCCCCCC/C=C\CCCCCCCCC(=O)O
AC50 (Cytochrome P450 2C9): 39.8 µM (inconclusive)
AC50 (Cytochrome P450 2C19; read-out: AC50): 39.8 µM (inconclusive)

COCCCNCC(=O)c1c(N)n(Cc2ccccc2)c(=O)n(C)c1=O
AC50 (Cytochrome P450 2D6): 14.1 µM (inconclusive)
AC50 (Cytochrome P450 2C19; read-out: AC50): 35.5 µM (inconclusive)

CN(c1ccccc1)P(=O)(N1CC1)N1CC1
EC50 [4]: > 53 µM (inactive)
IC50 [5]: > 47.1 µM (inactive)

CCC(C)NC(=O)C1(C)CCC(=O)N1Cc1ccccc1OC (stereo not drawn)
EC50 [2]: > 195 µM (not active)

O=c1oc(CCO)cc2ccc(Br)cc12
EC50 [4]: > 53 µM (inactive)
IC50 [5]: > 47.1 µM (inactive)

Cc1c(C(=O)Nc2ccc3c(c2)OCCO3)cnn1C
EC50 [2]: 3.49 µM (active)

COc1cc(CC(=O)NCc2cccs2)cc(OC)c1OC
EC50 [4]: > 53 µM (inactive)
IC50 [5]: > 47.1 µM (inactive)

COc1ccc(Oc2ncc3ncc(=O)n(Cc4cccs4)c3n2)cc1
AC50 (Cytochrome P450 2D6): 39.8 µM (inconclusive)
AC50 (Cytochrome P450 2C19; read-out: AC50): 25.1 µM (inconclusive)

Cn1c(-c2ccc(-c3ccccc3)cc2)c[nH]c1=S
EC50 [4]: > 53 µM (inactive)
IC50 [5]: > 47.1 µM (inactive)

CCNC(=O)COC(=O)c1cc(-c2ccc(OC)cc2)nc2ccccc12
AC50 (Cytochrome P450 2C9): 2.51 µM (inconclusive)

CCOC(=O)C[C@@H](C(=O)OCC)[C@@H]1CCCCC1=O
AC50 (Cytochrome P450 2D6): 6.31 µM (inconclusive)

CC(=O)N(/N=C/c1cccc(C)c1)c1nc(-c2ccc(Br)cc2)cs1
AC50 (Cytochrome P450 2C9): 1.12 µM (inconclusive)
AC50 (Cytochrome P450 2C19; read-out: AC50): 0.0708 µM (inconclusive)

CC1Cc2ccccc2N1C(=O)COC(=O)c1ccc(S(=O)(=O)N(C)C)cc1 (stereo not drawn)
EC50 [2]: > 195 µM (not active)

CCn1c2ccccc2c2cc(NC(=O)c3ccco3)ccc21
CC50 [1]: 16.2 µM (active)

CC(C)OC(=O)C(C)Oc1ccc(C(=O)NCCc2ccccc2)cc1 (stereo not drawn)
IC50 (cells): 10.3 µM (active)

CC(C)OC(=O)c1cc2ccccc2oc1=O
AC50 (Cytochrome P450 2C9): 10 µM (inconclusive)

N#C/C(=C(\O)Nc1ccccc1)c1nc2ccccc2[nH]1
IC50 (cells): 2.43 µM (active)

Cn1c(CCN2CCCC2)nc2cc(NS(=O)(=O)c3ccccc3)ccc21
AC50 (Paired box protein Pax-8): 6.61 µM (active)

C=CCn1c(COc2ccccc2)nnc1SCC(=O)N/N=C/c1ccc(C)cc1
AC50 (Cytochrome P450 2D6): 39.8 µM (inconclusive)
AC50 (Cytochrome P450 2C19; read-out: AC50): 15.8 µM (inconclusive)

COc1ccc2c3c([nH]c2c1)[C@@H](CO)N(C(=O)Nc1cccc(F)c1)CC31CCN(S(=O)(=O)c2cccc(C)c2)CC1
AC50 (Paired box protein Pax-8): 6 µM (active)

CSCCC(=O)N1CCCC(CNC(=O)c2ccc(-c3ccccc3)cc2)C1 (stereo not drawn)
IC50 (cells): 11.6 µM (active)

COc1ccccc1C1NC(=O)CCC1[N+](=O)[O-] (stereo not drawn)
EC50 [2]: > 195 µM (not active)
